# According to US7786257B2, “Signal-1/signal-2 bifunctional peptide inhibitors” (priority 2000, dated 2010):
# Entries after “also recorded” stand apart in the source; their conditions may differ. Where no end group is shown, it is not given here. [ ]: non-standard residue; d: D form. Ahx = NCCCCCC(=O)O
# Test system: MHC-II and ICAM-1 molecules on the APC surface
# Test: Co-capping of ICAM-1 with MHC-II on APC from i.v. treated NOD mice (fluorescence microscopy)
# Type: cell-based, mouse
# Details: T-depleted spleenocytes from NOD mice 16 hours after i.v. injection of 40 nanomoles; bio-10-3.62/streptavidin
# Procedure: Specifically, it was verified that the peptide binds to MHC molecules on live APC. Briefly, spleen cell density-gradient fractions (from mice), or PBL, or APC lines (from humans) were incubated in round bottom 96-well plates with increasing concentrations of individual biotinylated peptides at 37° C., 5% CO2 for 16 hours. Following binding of the BPI to the APC, Avidin-FITC was incubated with the cells on ice for 30 minutes, followed by biotinylated anti-Avidin for 1 hour, then again with Avidin-FITC. For BPI titrations, increasing concentrations (0.1-100 μM) of the biotinylated derivatives in sterile 0.5% BSA-PBS were incubated with the APC for 16 hours as above. […] Three-color analyses used Cy-Chrome or PE-conjugated antibodies to known surface markers of APC that were commercially available. Avidin-FITC and biotinylated anti-Avidin detection of the bound peptide was as previously described in Murray et al., 24 Eur. J. Immunol. […]
# Further support for simultaneous binding of the BPI to MHC-II and ICAM-1 molecules has been observed in co-capping experiments using biotinylated mAb 10-3.62 and streptavidin to cap MHC-II in the presence or absence of the BPI. […] The cells are plated and observed for evidence that a given BPI links ICAM-1 into the MHC-II cap, i.e., by standard fluorescence microscopy and image analysis.
substance,measurement,value
GAD65(208-217)-[Ac-G-Ac-G-Ac]-CD11a (237-247) (EIAPVFVLLE[Ahx]G[Ahx]G[Ahx]ITDGEATDSG) [EGAD-BPI],co-capping of ICAM-1 with MHC-II,exhibited co-capping of ICAM-1 with MUC-II; also recorded: ICAM-1 was co-capped with MHC-II
